Results published in PubChem BioAssay (NCI).
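Five concentrations, 48 hours, 96-well plates. TGI marks complete inhibition of growth.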

Tests used:
Experiment in all cases: NCI-60 cell line screen, 48 h
[1] = tested on: EKVX NSCLC
[2] = tested on: NCI-H460 lung
[3] = tested on: 786-0 renal
[4] = tested on: XF 498 CNS
[5] = tested on: DMS 273 small cell lung
[6] = tested on: U251 CNS
[7] = tested on: OVCAR-4 ovarian
[8] = tested on: MOLT-4 leukemia
[9] = tested on: A549 NSCLC
[10] = tested on: M14 melanoma
[11] = tested on: SF-539 CNS
[12] = tested on: SNB-75 CNS
[13] = tested on: NCI-H522 lung
[14] = tested on: RXF 393 renal
[15] = tested on: HOP-62 NSCLC
[16] = tested on: SF-295 CNS
[17] = tested on: SK-OV-3 ovarian
[18] = tested on: COLO 205 colon
[19] = tested on: UACC-62 melanoma
[20] = tested on: LXFL 529 NSCLC
[21] = tested on: HCT-116 colon
[22] = tested on: CAKI-1 renal
[23] = tested on: CCRF-CEM leukemia
[24] = tested on: OVCAR-8 ovarian
[25] = tested on: SF-268 CNS
[26] = tested on: SK-MEL-5 melanoma
[27] = tested on: SNB-78 CNS
[28] = tested on: RPMI-8226 leukemia
[29] = tested on: DLD-1 colon
[30] = tested on: SN12C renal
[31] = tested on: SW-620 colon
[32] = tested on: DMS 114 small cell lung
[33] = tested on: ACHN renal
[34] = tested on: UACC-257 melanoma
[35] = tested on: HT29 colon
[36] = tested on: NCI-H226 lung
[37] = tested on: KM12 colon
[38] = tested on: TK-10 renal
[39] = tested on: SR leukemia
[40] = tested on: SK-MEL-2 melanoma
[41] = tested on: K-562 leukemia
[42] = tested on: HCT-15 colon
[43] = tested on: HL-60(TB) leukemia
[44] = tested on: HOP-92 NSCLC
[45] = tested on: SNB-19 CNS
[46] = tested on: LOX IMVI melanoma
[47] = tested on: HCC-2998 colon
[48] = tested on: NCI-H23 lung
[49] = tested on: UO-31 renal
[50] = tested on: MALME-3M melanoma
[51] = tested on: OVCAR-5 ovarian
[52] = tested on: KM20L2 colon
[53] = tested on: IGROV1 ovarian
[54] = tested on: OVCAR-3 ovarian
[55] = tested on: SK-MEL-28 melanoma
[56] = tested on: A498 renal

CCN(CC)c1ccc2cc3ccc(=[N+](CC)CC)cc-3oc2c1
TGI [1]: 19.9 µM
TGI [2]: 6.62 µM
TGI [3]: 7.73 µM
TGI [4]: 7.99 µM
TGI [5]: 2.49 µM
TGI [6]: 2.02 µM
TGI [7]: 26.1 µM
TGI [8]: 2.09 µM
TGI [9]: 16.6 µM
TGI [10]: 6.03 µM
TGI [11]: 5.12 µM
TGI [12]: 16.3 µM
TGI [13]: 5.7 µM
TGI [14]: 11.6 µM
TGI [15]: 13.7 µM
TGI [16]: 16.3 µM
TGI [17]: 13.6 µM
TGI [18]: 2.05 µM
TGI [19]: 9.36 µM
TGI [20]: 1.79 µM
TGI [21]: 1.77 µM
TGI [22]: 18 µM
TGI [23]: 6.33 µM
TGI [24]: 1.84 µM
TGI [25]: 2.75 µM
TGI [26]: 7.76 µM
TGI [27]: 11.1 µM
TGI [28]: 3.16 µM
TGI [29]: 14.5 µM
TGI [30]: 2.33 µM
TGI [31]: 1.43 µM
TGI [32]: 3.8 µM
TGI [33]: 7.39 µM
TGI [34]: 10.4 µM
TGI [35]: 4.48 µM
TGI [36]: 15.4 µM
TGI [37]: 1.92 µM
TGI [38]: 17.2 µM
TGI [39]: 1.52 µM
TGI [40]: 2.99 µM
TGI [41]: > 100 µM
TGI [42]: 12.7 µM
TGI [43]: 0.532 µM
TGI [44]: 3.13 µM
TGI [45]: 23.3 µM
TGI [46]: 1.98 µM
TGI [47]: 19 µM
TGI [48]: 3.04 µM
TGI [49]: 8.52 µM
TGI [50]: 2.78 µM
TGI [51]: 19.6 µM
TGI [52]: 12.1 µM
TGI [53]: 8.36 µM
TGI [54]: 2.11 µM
TGI [55]: 10.3 µM
TGI [56]: 29.8 µM

OCCCCOC(c1ccccc1)(c1ccccc1)c1ccccc1
TGI [2]: > 100 µM
TGI [3]: > 100 µM
TGI [4]: > 100 µM
TGI [5]: > 100 µM
TGI [6]: > 100 µM
TGI [7]: > 100 µM
TGI [8]: > 100 µM
TGI [9]: > 100 µM
TGI [10]: > 100 µM
TGI [11]: > 100 µM
TGI [12]: > 100 µM
TGI [13]: > 100 µM
TGI [14]: > 100 µM
TGI [15]: > 100 µM
TGI [16]: > 100 µM
TGI [17]: > 100 µM
TGI [18]: > 100 µM
TGI [19]: > 100 µM
TGI [20]: > 100 µM
TGI [21]: > 100 µM
TGI [22]: > 100 µM
TGI [23]: > 100 µM
TGI [24]: > 100 µM
TGI [25]: > 100 µM
TGI [26]: > 100 µM
TGI [27]: > 100 µM
TGI [28]: > 100 µM
TGI [29]: > 100 µM
TGI [30]: > 100 µM
TGI [31]: > 100 µM
TGI [32]: > 100 µM
TGI [33]: > 100 µM
TGI [34]: > 100 µM
TGI [35]: > 100 µM
TGI [36]: > 100 µM
TGI [37]: > 100 µM
TGI [38]: > 100 µM
TGI [39]: > 100 µM
TGI [41]: > 100 µM
TGI [42]: > 100 µM
TGI [43]: > 100 µM
TGI [44]: > 100 µM
TGI [46]: > 100 µM
TGI [47]: > 100 µM
TGI [48]: > 100 µM
TGI [49]: > 100 µM
TGI [50]: > 100 µM
TGI [51]: > 100 µM
TGI [52]: > 100 µM
TGI [53]: > 100 µM
TGI [54]: > 100 µM
TGI [55]: > 100 µM
